Consider five compounds from ChEMBL document CHEMBL1159166, “Chemoselective thioacylation of amino acids. Preparation of the four monothiothymopentin analogs and their biological activity” (1993).

Where a SMILES comes first, the peptide text is derived from it.

The species named for this experiment is Bos taurus. The experiment can be described thus: Electromyographic activity is measured as mean of the ratio of the height of the muscle action potential generated by the tenth impulse to the initial impulse in bovine thymus extracts at 10 mg. The format is functional, Muscle tissue.
For the compound `CC(C)[C@H](NC(=O)[C@H](CC(=O)O)NC(=O)[C@H](CCCCN)/N=C(\S)[C@@H](N)CCCN=C(N)N)C(=O)N[C@@H](Cc1ccc(O)cc1)C(=O)O`, the Mean is given as 0.85.
Under `CC(C)[C@H](/N=C(\S)[C@H](CC(=O)O)NC(=O)[C@H](CCCCN)NC(=O)[C@@H](N)CCCN=C(N)N)C(=O)N[C@@H](Cc1ccc(O)cc1)C(=O)O` stands 0.89.
Under `CC(C)[C@H](NC(=O)[C@H](CC(=O)O)NC(=O)[C@H](CCCCN)NC(=O)[C@@H](N)CCCN=C(N)N)/C(S)=N/[C@@H](Cc1ccc(O)cc1)C(=O)O` stands 0.84.
`CC(C)[C@H](NC(=O)[C@H](CC(=O)O)/N=C(\S)[C@H](CCCCN)NC(=O)[C@@H](N)CCCN=C(N)N)C(=O)N[C@@H](Cc1ccc(O)cc1)C(=O)O`: the Mean is recorded as 0.83.
Under `CC(C)[C@H](NC(=O)[C@H](CC(=O)O)NC(=O)[C@H](CCCCN)NC(=O)[C@@H](N)CCCN=C(N)N)C(=O)N[C@@H](Cc1ccc(O)cc1)C(=O)O` [THYMOPENTIN] (H-RKDVY-OH) stands 0.83.
